Measurements from patent US20230331674A1 (priority 2020, published 2023).

Assays:
[1] = tested on: cryopreserved human hepatocytes; assay: Metabolite identification in cryopreserved hepatocytes; format: in vitro ADME; details: 120 min, HPLC-MS
Method: Principal Phase I (oxidative) and Phase II (conjugative) metabolites have been detected and characterized following previously described procedure (Obach R. S. et al. J. Pharmacol. Exp. Ther. 1997, 283, 46-58). Briefly, the test compound 2 ([…]) was incubated at 37° C. in cryopreserved human hepatocytes (0.7 million cells/mL) for 120 min. Samples were taken at time 0 and the end of the incubation (2 h), respectively. A control sample (no test compound added) was also prepared and incubated for the same period of time. After the reaction was stopped by addition of acetonitrile, the supernatants were subjected to HPLC-MS analysis. Separation of analytes was achieved using Acquity HSS T3 column (100×2.1 mm, 1.8 μm, Waters). The sample solutions-supernatants (5 μL) were injected and eluted at a flow rate of 0.5 mL min-1, using a linear gradient of mobile phase A (0.1% formic acid in water) and mobile phase B (0.1% formic acid in MeCN). The gradient for mobile phase B was: 0-1.0 min, 5%; 1.0-7.0 min, 5%-80%; 7.0-7.5 min, 80%; 7.5-8.0 min, 80%-5%; 8.0-10.0 min, 5%. […] Retention times and the respective MS and MS/MS spectra of the species detected in the incubated sample and not in time-zero or blank sample were identified and recorded.

HepG2 cells = assay: Metabolic activity assay (cytotoxicity) in HepG2 cells; details: 24 h
Method: HepG2 cells (1×10^4 cells/well) were treated for 24 h with the appropriate concentrations of the compounds of interest or the corresponding vehicle (control cells), in triplicates in 96-well plates. The metabolic activities were determined using the CellTiter 96 Aqueous One Solution Cell Proliferation Assay (Promega, WI/USA), according to the manufacturer instructions.

[2] = molecular target: mAChE (murine acetylcholinesterase) (Mus musculus (Mouse), UniProt P21836); format: biochemical; details: screening at 10 μM; n.i. = no inhibiton
Chain of mAChE (murine acetylcholinesterase) (P21836 32-614): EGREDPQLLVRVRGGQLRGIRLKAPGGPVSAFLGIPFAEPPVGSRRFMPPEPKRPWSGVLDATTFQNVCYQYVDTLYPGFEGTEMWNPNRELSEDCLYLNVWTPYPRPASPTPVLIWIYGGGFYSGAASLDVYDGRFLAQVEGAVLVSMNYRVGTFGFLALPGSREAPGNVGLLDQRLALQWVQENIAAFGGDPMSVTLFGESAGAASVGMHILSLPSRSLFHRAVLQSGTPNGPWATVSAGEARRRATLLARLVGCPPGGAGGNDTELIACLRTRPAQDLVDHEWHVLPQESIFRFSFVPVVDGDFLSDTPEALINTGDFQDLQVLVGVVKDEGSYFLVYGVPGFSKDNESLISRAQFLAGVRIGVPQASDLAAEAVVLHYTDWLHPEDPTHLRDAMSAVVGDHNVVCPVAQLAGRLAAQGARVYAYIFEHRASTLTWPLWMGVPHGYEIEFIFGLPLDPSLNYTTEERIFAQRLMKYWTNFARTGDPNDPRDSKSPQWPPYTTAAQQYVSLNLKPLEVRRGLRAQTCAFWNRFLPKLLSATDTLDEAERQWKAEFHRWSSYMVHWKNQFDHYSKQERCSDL
Description: To determine the blank value (b), phosphate-buffered solution replaced the enzyme solution.

Plasma stability = format: in vitro ADME; details: human, 37° C., 2 h incubation, read-out: In vitro half-life in human plasma
Method: Propoxycaine and propantheline were tested as reference compounds simultaneously in each assay. The incubation was performed in a 37° C. water bath for 2 h. An aliquot of the incubation mixture was transferred to acetonitrile at 0, 0.5, 1, 1.5 and 2 h, respectively. Samples were then mixed and centrifuged. Supernatants were used for HPLC-MS/MS analysis using selected reaction monitoring, and peak areas were recorded for each analyte. The HPLC conditions consisted of a binary LC pump with autosampler, a C18 column (2×20 mm), and gradient elution. The area of precursor compound remaining after each time points relative to the amount remaining at time zero, expressed as percent, is calculated. Subsequently, the half-life (t1/2) was estimated from the slope of the initial linear range of the logarithmic curve of the compound remaining (%) versus time, assuming first order kinetics.

SH-SY5Y cells = assay: Cell viability assay (MTS) in SH-SY5Y cells; details: 48 h
Method: Prior to cell treatments, complete medium was replaced with reduced-serum medium (i.e., with 2% fetal bovine serum). (±)-N-((1-benzylpiperidin-3-yl)methyl)-N-(2-methoxyethyl)naphthalene-2-sulfonamide hydrochloride was prepared as a stock solution of 10 mM in DMSO and was used at concentrations of 1 μM to 100 μM.
SH—SY5Y cells were seeded in 96-well plates (2×10^4/well) and assessed in the MTS ([3-(4,5-dimethylthiazol-2-yl)-5-(3-carboxymethoxyphenyl)-2-(4-sulfophenyl)-2H-tetrazolium, inner salt) assay for their response to treatments with (±)-N-((1-benzylpiperidin-3-yl)methyl)-N-(2-methoxyethyl)naphthalene-2-sulfonamide hydrochloride. The cells were treated as described above, and cell viability was assessed after 48 h using the CellTiter 96 Aqueous One Solution Cell Proliferation Assay (Promega, Madison, WI, USA), according to the manufacturer instructions. Absorbance was measured with an automatic microplate reader (Tecan Safire2, Switzerland) at a wavelength of 492 nm. The data are presented as percentages of the control (DMSO).

[3] = tested on: SH-SY5Y cells treated with Aβ(1-42); assay: Neuroprotective effect against Aβ(1-42) cytotoxicity, propidium iodide flow cytometry; format: cell-based, human; details: 5 μM Aβ(1-42), 48 h
Method: SH—SY5Y cells were seeded into a 24-well culture plate (1.2×10^5/well) and next day, treated as described above. After 48 h treatment, cells were washed with pre-warmed PBS and further stained with PI solution (30 μM) for 15 min at 37° C. Cells were then analyzed for cytotoxicity by flow cytometry on FACS Calibur (BD Bioscience, San Jose, CA, USA). The percentage of PI positive cells (PI^pos) was evaluated using FlowJo software (Ashland, OR, USA) and results are presented as a relative fold increase of PI^pos corresponding vehicle treatment (DMSO control).

in vitro = details: human, Caco-2
Method: (§1) They were grown on Transwell® culture inserts with a polycarbonate membrane (diameter, 12 mm; pore size, 0.4 μm). 50,000 cells/filter membranes were used for seeding and the medium was changed every two days. At day 18, transepithelial electrical resistance (TEER) was measured for each filter with Caco-2 cell monolayers. […] The samples were acidified by dilution with the same volume of 0.01 M HCl before fluorescence measurements.
(§2) Ringer buffer with 10 mM d-glucose or 10 mM mannitol on apical and basolateral side of the tissue, respectively, was used as an incubation saline. […] The experiment started by the addition of stock solutions of (±)-N-((1-benzylpiperidin-3-yl)methyl)-N-(2-methoxyethyl)naphthalene-2-sulfonamide hydrochloride and fluorescein in the donor compartment to provide final 100 μM donor concentration of (±)-N-((1-benzylpiperidin-3-yl)methyl)-N-(2-methoxyethyl)naphthalene-2-sulfonamide and 20 μM fluorescein. The stock solutions were added either to the apical or to the basolateral compartment to obtain bidirectional permeability measurements. Six samples were withdrawn in 20 min intervals. Each time 300 μl was taken from the 1500 μL basolateral acceptor compartment and 100 μL from the 500 μL apical acceptor compartment. These volumes were immediately replaced by the appropriate fresh incubation saline. The concentrations of (±)-N-((1-benzylpiperidin-3-yl)methyl)-N-(2-methoxyethyl)naphthalene-2-sulfonamide in the samples were determined by HPLC-UV immediately after the experiment.

Caco-2 cell monolayers = assay: in vitro
Method: as §1, §2

In the case of COCCN(CC1CCCN(Cc2ccccc2)C1)S(=O)(=O)c1ccc2ccccc2c1 (racemic) [(±)-N-((1-benzylpiperidin-3-yl)methyl)-N-(2-methoxyethyl)naphthalene-2-sulfonamide], the Possible metabolites [1] is reported as “N-debenzylated, demethylated, and a demethylated+glucoronide products”, the LD50 (HepG2 cells) is reported as 58.67 µM and the “IC50 + STD (μM) or % inhibition at 10 μM mAChE” value [2] is reported as “n.i”. The half-life at 1 μM (Plasma stability) was > 2 h, the LD50 (SH-SY5Y cells) was 31.40 µM and the “Neuroprotective effect against Aβ(1-42) toxicity” value ([3]; compound 1-10 μM) was “clear dose-response neuroprotective effect”. The “Effect on Aβ(1-42)-induced cell death” value ([3]; compound at 10 μM) was “reversed Aβ(1-42)-induced cell death”, the Papp A→B at 120 min, 100 μM (in vitro) was 30 ± 10.7 ×10⁻⁶ cm/s and the Papp B→A at 120 min, 100 μM (in vitro) was 29.1 ± 2.9 ×10⁻⁶ cm/s. The “Permeability class according to the biopharmaceutical classification system” value (Caco-2 cell monolayers) was “high”.
